This is an account of results in ChEMBL document CHEMBL1140521, “Enhanced efficacy of 7-hydroxy-3-methoxycadalene via glycosylation in in vivo xenograft study” (Bioorg Med Chem Lett, 2007).

The test system of assay [1] is HeLa. As to the kind of experiment: Cytotoxicity against human HeLa cells after 24 hrs by WST8 assay. The assay is classed as functional, cell-based. (Tetrazolium dyes change colour on reduction, which living cells bring about.)
The subject of assay [2] is A549. Description: Antitumor activity against human A549 cells xenografted athymic BALB/c mouse assessed as reduction in tumor volume at 100 mg/kg/day, po for 28 days. The assay is classed as functional. Also noted: scale not given: the % may be the effect or the level left.
The test system of assay [3] is A549. As to the kind of experiment: Cytotoxicity against human A549 cells after 24 hrs by WST8 assay. The assay is classed as functional, cell-based. The following applies: A549, 24 h.

Broadly, the IC50 is the point on the concentration scale where inhibition reaches its midpoint. Turning to `COc1cc(C)c2cc(O[C@@H]3O[C@H](CO)[C@@H](O)[C@H](O)[C@H]3O)c(C)cc2c1C(C)C`, the results for the IC50 in assay [1] and in assay [3] were 231 µM and 194 µM, respectively. In addition, the Activity in assay [2] came out at 50%.
Turning to `COc1cc(C)c2cc(OCCO[C@H]3O[C@H](CO)[C@@H](O)[C@H](O)[C@H]3O)c(C)cc2c1C(C)C`, the IC50 was found to be 161 µM in assay [1] and 129 µM in assay [3]. Further, the Activity in assay [2] stood at 25%.
On to `COc1cc(C)c2cc(O)c(C)cc2c1C(C)C` [CADALENE], for which the IC50 in assay [1] is 28.3 µM; in assay [3] it was 34.9 µM.
